Experimental data from patent US20260327570A1, “METHOD FOR PRODUCING ORGANOIDS” (Chungnam National University Hospital, priority 2022, published 2026).

System: lung cancer organoids from lung cancer tissue exhibiting EGFR mutations
Test: Drug sensitivity test of lung cancer organoids (CellTiter-Glo 3D cell viability; calcein-AM staining)
Assay type: cell-based, human
Conditions: for AUC (area under the curve) / IC50: EGFR-mutant lung cancer organoids, six concentrations, drug treatment for 3 days, viability on day 6; for IC50: Homo sapiens; for sensitivity of lung cancer organoids from EGFR-mutant lung cancer patients: result in words, EGFR-TKIs vs ALK inhibitors, consistent with the clinical response of EGFR-mutant patients
Experimental: The experimental overview is conceptually illustrated in FIG. 12.
The organoids were harvested and mixed with Matrigel (Corning Life Sciences, USA, catalog #354263) and seeded onto pillar plates at 5×10^5 cells/mL. Next, the Matrigel-cell mixture (1.5 μL) was spotted onto the coated pillar plates using a pre-cooled ASFA spotter (Medical & Bio Decision, Suwon, Republic of Korea) and incubated in an inverted position at 4 °C for 15 minutes to allow cells to aggregate at the bottom of the spots. The plates were then placed in humidity chamber at 37 °C to allow the spot to gel. Subsequently, the plates were combined with well plates containing fresh medium. After 3 days, cells were treated with EGFR or ALK targeting agents at six concentrations using the ASFA spotter. Cell viability was measured by staining with 0.5 μM calcein-AM at 37 °C for 1 hour, followed by two PBS washes for 20 minutes. The organoid spots were scanned using an automated optical fluorescence scanner (ASFA scanner, Medical & Bio Decision, Korea) The scanner's microscope automatically focused on cell spots by moving in the z-direction, capturing 384 individual images at 4× magnification from one stained pillar/well plate. The images were then integrated into a single JPEG image for data analysis. The scanned images were analyzed using CellAnalyzer version 2.0 (Medical & Bio Decision). After scanning the cells, the organoid spots were transferred to new 384-well plates containing CellTiter-Glo 3D reagent to measure intracellular ATP levels via luminescence activity.
In brief, a total of 5000 single cells per pillar of the plate were seeded in 1.5 μL medium and cultured for 3 days. Subsequently, various EGFR-TKIs and ALK inhibitors were administered at multiple doses for 3 days to determine IC50 and AUC (area under the curve). On day 6, organoid viability was confirmed using fluorescent dye Calcein-AM (see FIG. 13), and survival rates for each drug were measured using CellTiter-Glo 3D cell viability assay (G9681; Promega) (see FIG. 14).

IC50 [nM]	Structure (SMILES)	AUC (area under the curve)	sensitivity of lung cancer organoids from EGFR-mutant lung cancer patients
790	CN(C)C/C=C/C(=O)Nc1cc2c(Nc3ccc(F)c(Cl)c3)ncnc2cc1O[C@H]1CCOC1 [Afatinib]	125.1	showed sensitivity
> 50000	CCc1cc2c(cc1N1CCC(N3CCOCC3)CC1)C(C)(C)c1[nH]c3cc(C#N)ccc3c1C2=O [Alectinib]	240.9	
7100	C[C@@H](Oc1cc(-c2cnn(C3CCNCC3)c2)cnc1N)c1c(Cl)ccc(F)c1Cl [Crizotinib]	177.2	

Structure (SMILES)	IC50 [nM]	AUC (area under the curve)	sensitivity of lung cancer organoids from EGFR-mutant lung cancer patients
C=CC(=O)Nc1cc(Nc2nccc(-c3cn(C)c4ccccc34)n2)c(OC)cc1N(C)CCN(C)C [Osimertinib]	1800	133.9	showed sensitivity
